In ChEMBL document CHEMBL3769336, “Discovery of a Chemical Tool Inhibitor Targeting the Bromodomains of TRIM24 and BRPF” (J Med Chem, 2016):

Legend:
[1] = target: T1, Transcription intermediary factor 1-alpha (Homo sapiens, UniProt O15164); test: Binding affinity to N-terminal His6-SUMO-1-tagged recombinant human TRIM24 bromodomain expressed in Escherichia coli BL21(DE3)-R3-pRARE2 cells by isothermal titration calorimetry
T1 sequence (O15164 whole entry): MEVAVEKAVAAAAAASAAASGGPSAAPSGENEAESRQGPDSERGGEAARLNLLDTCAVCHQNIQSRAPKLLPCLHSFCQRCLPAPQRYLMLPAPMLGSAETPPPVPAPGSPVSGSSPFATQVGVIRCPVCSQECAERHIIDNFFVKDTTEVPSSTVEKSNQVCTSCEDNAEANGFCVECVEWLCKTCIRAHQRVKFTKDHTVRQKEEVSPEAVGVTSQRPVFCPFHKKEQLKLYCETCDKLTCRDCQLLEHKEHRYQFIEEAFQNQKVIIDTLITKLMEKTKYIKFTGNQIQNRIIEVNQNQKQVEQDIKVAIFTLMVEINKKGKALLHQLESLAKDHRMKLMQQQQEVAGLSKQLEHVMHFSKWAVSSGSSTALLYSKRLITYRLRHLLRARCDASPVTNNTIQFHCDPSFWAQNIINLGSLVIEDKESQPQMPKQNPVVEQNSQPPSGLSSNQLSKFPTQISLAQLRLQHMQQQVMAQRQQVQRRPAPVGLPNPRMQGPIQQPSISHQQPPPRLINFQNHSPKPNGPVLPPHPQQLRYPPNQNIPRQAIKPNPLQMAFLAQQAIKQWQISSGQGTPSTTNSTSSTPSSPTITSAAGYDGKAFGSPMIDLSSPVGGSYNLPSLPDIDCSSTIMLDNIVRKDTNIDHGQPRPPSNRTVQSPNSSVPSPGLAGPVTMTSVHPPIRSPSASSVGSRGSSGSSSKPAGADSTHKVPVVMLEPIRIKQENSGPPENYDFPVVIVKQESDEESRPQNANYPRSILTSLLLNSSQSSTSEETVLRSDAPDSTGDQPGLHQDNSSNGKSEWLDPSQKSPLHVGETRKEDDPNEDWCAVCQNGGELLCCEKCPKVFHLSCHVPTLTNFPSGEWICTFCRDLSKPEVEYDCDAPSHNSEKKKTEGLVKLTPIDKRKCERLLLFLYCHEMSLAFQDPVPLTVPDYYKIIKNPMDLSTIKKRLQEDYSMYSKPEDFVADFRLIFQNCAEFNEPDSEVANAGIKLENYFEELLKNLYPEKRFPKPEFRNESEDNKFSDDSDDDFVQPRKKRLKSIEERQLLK

[2] = target: T2, Bromodomain-containing protein 1 (Homo sapiens, UniProt O95696); test: Inhibition of BRPF2 BRD1 (unknown origin) by Alpha Screen assay
T2 sequence (O95696 whole entry): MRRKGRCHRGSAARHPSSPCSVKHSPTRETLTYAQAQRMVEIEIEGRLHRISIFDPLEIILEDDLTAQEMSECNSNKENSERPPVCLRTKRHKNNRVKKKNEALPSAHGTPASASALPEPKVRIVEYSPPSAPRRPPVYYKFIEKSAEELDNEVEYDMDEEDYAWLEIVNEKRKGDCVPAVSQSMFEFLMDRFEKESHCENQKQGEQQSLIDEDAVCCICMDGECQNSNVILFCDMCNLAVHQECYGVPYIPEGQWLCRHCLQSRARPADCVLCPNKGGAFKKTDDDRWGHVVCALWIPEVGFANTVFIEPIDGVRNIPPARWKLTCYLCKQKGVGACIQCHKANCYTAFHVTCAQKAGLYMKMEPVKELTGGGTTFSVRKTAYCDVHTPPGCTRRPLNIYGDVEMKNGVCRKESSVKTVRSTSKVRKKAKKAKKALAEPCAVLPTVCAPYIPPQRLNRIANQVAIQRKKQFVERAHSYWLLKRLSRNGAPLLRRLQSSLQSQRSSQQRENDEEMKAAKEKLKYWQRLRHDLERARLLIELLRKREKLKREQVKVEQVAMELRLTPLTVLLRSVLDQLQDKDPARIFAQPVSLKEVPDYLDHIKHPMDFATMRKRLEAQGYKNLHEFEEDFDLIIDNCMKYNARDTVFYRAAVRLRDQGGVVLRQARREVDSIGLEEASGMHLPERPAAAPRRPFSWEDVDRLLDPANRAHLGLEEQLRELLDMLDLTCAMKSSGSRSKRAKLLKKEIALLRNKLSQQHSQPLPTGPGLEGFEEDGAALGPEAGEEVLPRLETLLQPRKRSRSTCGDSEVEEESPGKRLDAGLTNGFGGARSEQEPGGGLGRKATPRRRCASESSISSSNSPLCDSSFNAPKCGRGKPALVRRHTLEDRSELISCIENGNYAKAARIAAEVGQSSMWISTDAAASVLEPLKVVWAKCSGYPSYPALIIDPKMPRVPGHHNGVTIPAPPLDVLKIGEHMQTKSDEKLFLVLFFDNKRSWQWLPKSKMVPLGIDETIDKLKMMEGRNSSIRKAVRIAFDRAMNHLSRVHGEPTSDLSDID

COc1ccc(Oc2cc3c(cc2NS(=O)(=O)c2ccc(OC)c(OC)c2)n(C)c(=O)n3C)cc1
Kd [1]: 0.222 µM | IC50 [2]: 1.75 µM
